# According to patent US20260217711A1, “TRIAZOLOPYRIDINYL ETHER LINKED COMPOUNDS AS KINASE INHIBITORS” (Bristol-Myers Squibb Company, priority 2023, published 2026):
# Tested on: MLKL phosphorylation (pMLKL) in HT29-L23 cells
# Experiment: MLKL Phosphorylation High-Content Assay
# Assay type: cell-based
# Settings: Homo sapiens, 6 h, necroptosis induced with human TNFα, SMAC mimetic and Z-VAD, read-out: LE pMLKL HC IC50
# How it was run: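 HT29-L23 cells incubated 6 h at 37° C before detection of phospho-MLKL by immunostaining with anti-phospho-MLKL antibody (1:1000 in PBS/0.1% BSA, overnight at 4° C). Readout by high-content imaging with compartmental image analysis.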
row,SMILES,IC50
1,"CC(O)(c1cccnc1)C(F)(F)CCOc1c(F)ccc(-c2ccn3nc(N)nc3c2)c1F (single isomer, unassigned) [Example 36, 5-(3-(2-amino-[1,2,4]triazolo[1,5-a]pyridin-7-yl)-2,6-difluorophenoxy)-3,3-difluoro-2-(pyridin-3-yl)pentan-2-ol]",5 nM
2,"CC(C)CC(O)C(F)(F)CCOc1cccc(-c2ccn3nc(N)nc3c2)c1F (single isomer, unassigned) [Example 6, 1-(3-(2-amino-[1,2,4]triazolo[1,5-a]pyridin-7-yl)-2-fluorophenoxy)-3,3-difluoro-6-methylheptan-4-ol]",80 nM

# Same assay, conditions: necroptosis induced with human TNFα, SMAC mimetic and Z-VAD, 6 h, read-out: LE pMLKL HC IC50
row,SMILES,IC50
1,"Cc1ccc(-c2ccn3nc(N)nc3c2)c(F)c1OCCC(F)C(O)c1ccc(F)cc1 (single isomer, unassigned) [Example 109, 4-(3-(2-amino-[1,2,4]triazolo[1,5-a]pyridin-7-yl)-2-fluoro-6-methylphenoxy)-2-fluoro-1-(4-fluorophenyl)butan-1-ol]",0.1 nM
2,"CC(CC(F)(F)C(C)(O)c1ccc(F)cc1)Oc1c(F)ccc(-c2ccn3nc(N)nc3c2)c1F (single isomer, unassigned) [Example 126, 5-(3-(2-amino-[1,2,4]triazolo[1,5-a]pyridin-7-yl)-2,6-difluorophenoxy)-3,3-difluoro-2-(4-fluorophenyl)hexan-2-ol]",370 nM
3,"CC(O)(c1ccc(F)cc1)C(F)(F)CCOc1ccc(F)c(-c2ccn3nc(N)nc3c2)n1 (single isomer, unassigned) [Example 78, 5-((6-(2-amino-[1,2,4]triazolo[1,5-a]pyridin-7-yl)-5-fluoropyridin-2-yl)oxy)-3,3-difluoro-2-(4-fluorophenyl)pentan-2-ol]",13 nM
4,"CC(CC(F)(F)C(C)(O)c1ccc(F)cc1)Oc1c(F)ccc(-c2ccn3nc(N)nc3c2)c1F (single isomer, unassigned) [Example 128, 5-(3-(2-amino-[1,2,4]triazolo[1,5-a]pyridin-7-yl)-2,6-difluorophenoxy)-3,3-difluoro-2-(4-fluorophenyl)hexan-2-ol]",170 nM
5,"COc1cc(F)c(OCCC(F)(F)C(C)(O)c2ccc(F)cc2)c(F)c1-c1ccn2nc(N)nc2c1 (single isomer, unassigned) [Example 20, 5-(3-(2-amino-[1,2,4]triazolo[1,5-a]pyridin-7-yl)-2,6-difluoro-4-methoxyphenoxy)-3,3-difluoro-2-(4-fluorophenyl)pentan-2-ol]",110 nM
6,"COc1ccc(-c2ccn3nc(N)nc3c2)c(F)c1OCCC(F)(F)C(C)(O)c1ccc(F)cc1 (single isomer, unassigned) [Example 19, 5-(3-(2-amino-[1,2,4]triazolo[1,5-a]pyridin-7-yl)-2-fluoro-6-methoxyphenoxy)-3,3-difluoro-2-(4-fluorophenyl)pentan-2-ol]",0.4 nM
7,"Nc1nc2cc(-c3ccc(F)c(OCCC(F)C(O)c4ccc(F)cc4)c3F)ccn2n1 (single isomer, unassigned) [Example 102, 4-(3-(2-amino-[1,2,4]triazolo[1,5-a]pyridin-7-yl)-2,6-difluorophenoxy)-2-fluoro-1-(4-fluorophenyl)butan-1-ol]",3 nM
8,"CC(O)(c1ccc(F)cc1)C(F)CCOc1cccc(-c2ccn3nc(N)nc3c2)c1F (single isomer, unassigned) [Example 88, 5-(3-(2-amino-[1,2,4]triazolo[1,5-a]pyridin-7-yl)-2-fluorophenoxy)-3-fluoro-2-(4-fluorophenyl)pentan-2-ol]",13 nM
9,"CC(C)CC(O)C(F)(F)CCOc1cccc(-c2ccn3nc(N)nc3c2)c1F (single isomer, unassigned) [Example 7, 1-(3-(2-amino-[1,2,4]triazolo[1,5-a]pyridin-7-yl)-2-fluorophenoxy)-3,3-difluoro-6-methylheptan-4-ol]",160 nM
10,"CC(O)(c1ccc(F)cc1)C(F)CCOc1cccc(-c2ccn3nc(N)nc3c2)c1F (single isomer, unassigned) [Example 89, 5-(3-(2-amino-[1,2,4]triazolo[1,5-a]pyridin-7-yl)-2-fluorophenoxy)-3-fluoro-2-(4-fluorophenyl)pentan-2-ol]",15 nM
11,"CC(O)(c1ccc(F)cc1)C(F)CCOc1cccc(-c2ccn3nc(N)nc3c2)c1F (single isomer, unassigned) [Example 90, 5-(3-(2-amino-[1,2,4]triazolo[1,5-a]pyridin-7-yl)-2-fluorophenoxy)-3-fluoro-2-(4-fluorophenyl)pentan-2-ol]",3 nM
12,"Nc1nc2cc(-c3ccc(F)c(OCCC(F)(F)C(O)c4ccc(F)cn4)c3F)ccn2n1 (single isomer, unassigned) [Example 33, 4-(3-(2-amino-[1,2,4]triazolo[1,5-a]pyridin-7-yl)-2,6-difluorophenoxy)-2,2-difluoro-1-(5-fluoropyridin-2-yl)butan-1-ol]",85 nM
13,"CC(O)(c1ccc(F)cc1)C(F)(F)CCOc1c(F)ccc(-c2ccc3nc(N)nn3c2)c1F (single isomer, unassigned) [Example 75, 5-(3-(2-amino-[1,2,4]triazolo[1,5-a]pyridin-6-yl)-2,6-difluorophenoxy)-3,3-difluoro-2-(4-fluorophenyl)pentan-2-ol]",200 nM
14,"CC(CC(F)(F)C(C)(O)c1ccc(F)cc1)Oc1c(F)ccc(-c2ccn3nc(N)nc3c2)c1F (single isomer, unassigned) [Example 129, 5-(3-(2-amino-[1,2,4]triazolo[1,5-a]pyridin-7-yl)-2,6-difluorophenoxy)-3,3-difluoro-2-(4-fluorophenyl)hexan-2-ol]",70 nM
